# According to ChEMBL document CHEMBL5678802, “Small-molecule p21-activated kinase inhibitor PF-3758309 is a potent inhibitor of oncogenic signaling and tumor growth” (Proc Natl Acad Sci U S A, 2010):
# The source made the active and inactive calls. No cut-off for these calls is given here.
# Columns and labels:
# HCT-116 [1] = assay: Effect on phosphorylated PAK4 level in human HCT-116 cells at 1 uM incubated for 15 mins by Western blot analysis; type: functional, cell-based
# HCT-116 [2] = assay: Effect on phosphorylated GEF-H1 level in human HCT-116 cells at 1 uM incubated for 15 mins by Western blot analysis; type: functional, cell-based
# [3] = target: T1, Serine/threonine-protein kinase PAK 4 (Homo sapiens, UniProt O96013); assay: Inhibition of N-terminal 6His-tagged human recombinant PAK4 kinase domain (300 to 591 residues) using EVPRRKSLVGTPYWM peptide as substrate assessed as inhibition constant in presence of ATP by biochemical assay
# T1 sequence (O96013 whole entry, the tested form may be a part): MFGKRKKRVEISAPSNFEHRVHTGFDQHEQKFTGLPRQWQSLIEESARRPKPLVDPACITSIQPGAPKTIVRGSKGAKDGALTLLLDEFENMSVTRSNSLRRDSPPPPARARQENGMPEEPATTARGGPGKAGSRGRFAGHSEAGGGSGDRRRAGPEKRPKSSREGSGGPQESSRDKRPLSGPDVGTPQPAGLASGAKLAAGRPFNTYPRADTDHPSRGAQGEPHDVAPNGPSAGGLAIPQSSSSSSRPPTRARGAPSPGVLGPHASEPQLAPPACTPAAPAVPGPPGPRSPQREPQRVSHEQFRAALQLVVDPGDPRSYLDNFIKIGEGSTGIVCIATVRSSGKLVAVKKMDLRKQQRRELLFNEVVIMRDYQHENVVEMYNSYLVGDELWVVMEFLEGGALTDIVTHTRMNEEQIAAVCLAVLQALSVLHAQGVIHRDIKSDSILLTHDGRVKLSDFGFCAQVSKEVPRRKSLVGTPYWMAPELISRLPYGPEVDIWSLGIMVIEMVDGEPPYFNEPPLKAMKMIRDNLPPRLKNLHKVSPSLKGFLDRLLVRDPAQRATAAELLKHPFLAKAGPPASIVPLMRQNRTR
# [4] = target: T1, Serine/threonine-protein kinase PAK 4; assay: Inhibition of PAK4 Kinase domain (291 to 591 residues) (unknown origin) transfected in TR-293-KDG cells using GEFH1 as substrate assessed as inhibition of PAK4-dependent phosphorylation of GEFH1 at S810 residue incubated for 3 hrs by ELISA; type: cell-based
Compound,inhibition (HCT-116 [1]),Activity (HCT-116 [2]),Ki [3] [µM],IC50 [4] [µM]
COc1ccc(C2=NC(c3ccc(Cl)cc3)C(c3ccc(Cl)cc3)N2C(=O)N2CCNC(=O)C2)c(OC(C)C)c1 (centres undefined),inactive,inactive,,
C[C@@H]1CN(C(=O)N2Cc3c(NC(=O)c4ccccn4)n[nH]c3C2(C)C)[C@@H](C)CN1CC1CCOCC1,,,52,10
